“Also recorded” adds a separate entry of the source. Where no end group is shown, it is not given here.
Tests used:
[1] = physchem; conditions: buffer, pH 7.4
[2] = In vitro peptide aging: deamidation of the asparaginyl residue, by reverse-phase HPLC with UV at 210 nm; conditions: pH 7.4, 37° C.
[3] = Stephenson and Clarke; cited from earlier work
[4] = In vitro peptide aging: hydrolysis of the succinimide intermediate to isoaspartyl vs normal aspartyl peptide (HPLC); assay type: physicochemical; conditions: for average relative amount of isoaspartyl-containing peptide (isoAsp/(isoAsp+Asp)): samples aged at 37° C. for at least 24 h, pH 7.4
Protocol: Both isoaspartyl- and normal aspartyl-containing peptides arose from spontaneous deamidation of the deuterated asparaginyl residue upon incubation at pH 7.4 and 37° C.

[5] = In vitro peptide aging: racemization, D-aspartate quantified in acid hydrolysates and rate constants fitted; assay type: physicochemical; conditions: for Asn/Asp/isoAsp residues racemized to the D-configuration by 4 days: 4 days of aging; for racemization rate constant of the succinimide: least squares fit of modeled D-Asx accumulation to measured values; for slope of racemization line (D-aspartate fraction versus time): deamidated peptides
Protocol: First, a 10 μL aliquot (3.27 nmol) was removed from the aged sample and dried in a small glass test tube. These tubes were placed in a hydrolysis vial and 300 μL of 6 M hydrochloric acid was added to the vial but not directly into the sample tubes. The vial was capped with a Teflon stopcock, and then was flushed with nitrogen and sealed under vacuum using a PicoTag Work Station (Waters). This method allows only acid vapor to contact the peptide, minimizing contamination with exogenous aspartic acid. Hydrolysis proceeded at 110° C. for the relatively short time of 3 h, which is long enough to release most of the asparaginyl/aspartyl residues from the peptide, while minimizing acid catalyzed racemization (Brunauer and Clarke 1986). D-Aspartate and L-aspartate in the hydrolysates were then modified with o-phthalaldehyde and N-acetyl-L-cysteine to make fluorescent diasteriomers and quantitated using reverse phase HPLC with fluorometric analysis (Aswad 1984), as modified by Warmack et al. 2016.
To get an estimate of the racemization rate constants, the rate constants determined by Geiger and Clarke (1987) for a peptide of the same sequence was used but only with protonated asparagine using the following equations, where each k value has the units of min^−1: […]
At time zero, the l-asparaginyl-containing peptide is set to a quantity of 1.0, and all of the degradation products are considered to have a quantity of 0. The equations are then solved to give the quantities of the peptides present after 1 min, and these quantities are then used to solve the peptides for the next minute. Using Microsoft Excel, these calculations were repeated until the amount of each peptide present after 20.6 days was determined.
To investigate the effect of asparagine residue deuteration on racemization, the peptides were aged at 37° C. and pH 7.4 as described above, and the quantity of D-aspartate determined following acid hydrolysis. While breaking the peptide bonds to release free amino acids, acid hydrolysis also converts asparaginyl, succinimidyl, and isoaspartyl residues into free aspartic acid. […] The accumulation of D-Asx residues (D-Asp, D-isoAsp, and D-succinimide) was modeled using the rate constants as described in the “Materials and methods” section to fit the data points using the values obtained by Geiger and Clarke (1987) and maximizing the fit by varying the rate constant for succinimide racemization.
VYPNGA containing either protiated or deuterated asparagine was incubated for various times at 37° C. and pH 7.4 and then acid hydrolyzed. The amount of d-aspartate and l-aspartate in the hydrolysates was quantified following derivatization with ortho-phthalaldehyde and N-acetyl-1-cysteine and separation of the resulting fluorescent diastereomers by reverse-phase HPLC, and graphed as the fraction of d-aspartate relative to the total aspartate (open circles). […] The lines were obtained by computer simulation of the reactions involved in deamidation of asparaginyl residues starting with previously published kinetic constants (Geiger and Clarke 1987), and varying the racemization rate of the succinimide intermediate to give a best-fit line as determined by least squares analysis.

[6] = Geiger and Clarke 1987; cited from earlier work
[7] = between 9 and 22 days of incubation

half-life at 800 µM [1] | asparaginyl residues deamidated after 6 days [2] | asparaginyl residues deamidated after three days [2] | average relative amount of isoaspartyl-containing peptide (isoAsp/(isoAsp+Asp)) [4] | Asn/Asp/isoAsp residues racemized to the D-configuration by 4 days ([5]; 37° C., pH 7.4) | racemization rate constant of the succinimide ([5]; 37° C., pH 7.4) | slope of racemization line (D-aspartate fraction versus time) [5, 7] | racemization rate constant relative to that previously measured (Geiger and Clarke) ([5]; higher than the literature value) | rate of racemization of protiated peptide relative to deuterated peptide ([5]; within the first day of aging under physiological conditions) | increase in production of normal aspartyl-containing peptide upon hydrolysis of the succinimide ring ([4]; deuterated versus protiated succinimide) | racemization rate constant relative to protiated peptide ([5]; 37° C., pH 7.4) | aspartyl/isoaspartyl/succinimidyl residues racemized to the D-configuration after 21 days ([5]; 37° C., pH 7.4, 21 days of incubation) | succinimides that have lost the deuterium from the alpha carbon ([5]; 21 days of incubation, 2×1.49%) | deamidated peptide still deuterated on the alpha carbon ([5]; after incubation, 9 to 22 days) | rate of racemization of l-aspartyl/l-isoaspartyl residues relative to protiated [5, 7] | Substance | succinimide formation of Asn residue in VYPNGA relative to aspartyl residue in VYPDGA [3] | L-isoAsp/(L-isoAsp+L-Asp) previously reported [6] | effect of deuterium atoms on rate of deamidation / succinimide formation ([2]; versus protiated peptide) | tendency of the succinimide to open to the isoaspartyl configuration / effect on succinimide hydrolysis ([4]; deuterated versus protonated succinimide) | accumulation of d-aspartyl and d-isoaspartyl forms / rate of D-aspartate formation relative to protiated peptide ([5]; pH 7.4, 37° C., up to 20 day incubation)
1940 min | about 95% | 80% | 0.793 | 5% | 0.00034 min⁻¹ | 0.000677 day⁻¹ | about 1.14 fold | 3.65 times |  |  |  |  |  |  | VYPNGA [protiated peptide, L-Val-L-Tyr-L-Pro-L-Asn-Gly-L-Ala, reference compound] | about 37 times | 0.785 |  |  | 
 | about 95% | 80% | 0.770 | 1% | 7.4e-05 min⁻¹ | about 1.70×10^−4 day^−1 |  |  | about 2.3% | almost five-fold lower | 1.49% | 2.98% | over 97% | about fourfold slower | VYPNGA [deuterated peptide] |  |  | little effect; also recorded: unchanged; also recorded: no effect | slightly less likely to open to the isoaspartyl configuration; also recorded: only a small effect | much slower rate; also recorded: decreased more than five-fold; also recorded: five-fold decreased rate; also recorded: much more resistant to racemization
